Measurements published in patent US20260125371A1, “METHOD FOR INHIBITING CLOSTRIDIOIDES DIFFICILE SPORE GERMINATION” (UNIVERSITY OF NOTRE DAME DU LAC, priority 2022, published 2026).
≈ marks a conversion by molar mass, not a printed value. Read-outs that look alike come from different tables or passages of the source. Values belong to the compound of their own block, whether it stands above or below them.

What was measured:
S. aureus = experiment: MIC against S. aureus strains; type: cell-based; conditions: S. aureus ATCC 29213, 24 h
C. difficile ATCC 43255 = experiment: Determination of minimal-inhibitory concentrations (microdilution), C. difficile ATCC 43255; type: cell-based, Clostridioides difficile; conditions: for MIC: Clostridioides difficile
C. difficile strains = experiment: MIC (microdilution) against panel of 101 C. difficile strains; type: cell-based, Clostridioides difficile; conditions: Clostridioides difficile
[1] = C. difficile ATCC 43255, 48-h incubation

SMILES: O=C1C[C@@H](c2nc(-c3ccc(Oc4ccc(C(F)(F)F)cc4)cc3)no2)CN1 [Compound 32]
- MIC (μg/mL) 24 h (S. aureus): >128 µg/mL
- MIC (μg/mL) 48 h (C. difficile ATCC 43255; [1]): >128 µg/mL
- MIC (μg/mL) 24 h (C. difficile ATCC 43255; C. difficile ATCC 43255, 24 h): >128 µg/mL

SMILES: FC(F)(F)c1ccc(Oc2ccc(-c3noc(-c4c[nH]cn4)n3)cc2)cc1 [Compound 34]
- MIC (μg/mL) 24 h (S. aureus): 2 µg/mL (≈ 5.37 µM)
- MIC (μg/mL) 48 h (C. difficile ATCC 43255; [1]): 8 µg/mL (≈ 21.5 µM)
- MIC (μg/mL) 24 h (C. difficile ATCC 43255; C. difficile ATCC 43255, 24 h): 8 µg/mL (≈ 21.5 µM)

SMILES: FC(F)(F)c1ccc(Oc2ccc(-c3noc(-c4cn[nH]n4)n3)cc2)cc1 [Compound 35]
- MIC (μg/mL) 24 h (S. aureus): 16 µg/mL (≈ 42.9 µM)
- MIC (μg/mL) 48 h (C. difficile ATCC 43255; [1]): >128 µg/mL
- MIC (μg/mL) 24 h (C. difficile ATCC 43255; C. difficile ATCC 43255, 24 h): >128 µg/mL

SMILES: Nc1c[nH]nc1-c1nc(-c2ccc(Oc3ccc(C(F)(F)F)cc3)cc2)no1 [Compound 37]
- MIC (μg/mL) 24 h (S. aureus): 4 µg/mL (≈ 10.3 µM)
- MIC (μg/mL) 48 h (C. difficile ATCC 43255; [1]): >128 µg/mL
- MIC (μg/mL) 24 h (C. difficile ATCC 43255; C. difficile ATCC 43255, 24 h): >128 µg/mL

- MIC (C. difficile strains; ATCC43598, strain ATCC43598): 2 µg/mL (≈ 5.76 µM)
- MIC (C. difficile strains; BAA1801, strain BAA-1801): 4 µg/mL (≈ 11.5 µM)
- MIC (C. difficile strains; BAA1803, strain BAA-1803): 2 µg/mL (≈ 5.76 µM)
- MIC (C. difficile strains; BAA1804, strain BAA-1804): 2 µg/mL (≈ 5.76 µM)
- MIC (C. difficile strains; BAA1812, strain BAA-1812): 2 µg/mL (≈ 5.76 µM)
- MIC (C. difficile strains; BAA1814, strain BAA-1814): 4 µg/mL (≈ 11.5 µM)
- MIC (C. difficile strains; BAA1870, strain BAA-1870): 4 µg/mL (≈ 11.5 µM)
- MIC (C. difficile strains; strain HM-88): 4 µg/mL (≈ 11.5 µM)
- MIC (C. difficile strains; strain HM-89): 8 µg/mL (≈ 23 µM)
- MIC (C. difficile strains; strain HM-745): 2 µg/mL (≈ 5.76 µM)
- MIC (C. difficile strains; strain HM-746): 2 µg/mL (≈ 5.76 µM)
- MIC (C. difficile strains; strain HM-747): 1 µg/mL (≈ 2.88 µM)
- MIC (C. difficile strains; strain NR49292): 8 µg/mL (≈ 23 µM)
- MIC (C. difficile strains; strain NR49294): 2 µg/mL (≈ 5.76 µM)
- MIC (C. difficile strains; strain NR49302): 4 µg/mL (≈ 11.5 µM)
- MIC (C. difficile strains; strain NR49305): 8 µg/mL (≈ 23 µM)
- MIC (C. difficile strains; strain NR49310): 4 µg/mL (≈ 11.5 µM)
- MIC (C. difficile strains; strain NR49318): 8 µg/mL (≈ 23 µM)
- MIC (C. difficile strains; strain NR-13427): 8 µg/mL (≈ 23 µM)
- MIC (C. difficile strains; strain NR-13428): 8 µg/mL (≈ 23 µM)
- MIC (C. difficile strains; strain NR-13429): 4 µg/mL (≈ 11.5 µM)
- MIC (C. difficile strains; strain NR-13430): 8 µg/mL (≈ 23 µM)
- MIC (C. difficile strains; strain NR-13431): 4 µg/mL (≈ 11.5 µM)
- MIC (C. difficile strains; strain NR-13433): 4 µg/mL (≈ 11.5 µM)
- MIC (C. difficile strains; strain NR-13434): 4 µg/mL (≈ 11.5 µM)
- MIC (C. difficile strains; strain NR-13435): 4 µg/mL (≈ 11.5 µM)
- MIC (C. difficile strains; strain NR-13436): 8 µg/mL (≈ 23 µM)
- MIC (C. difficile strains; strain NR-13437): 8 µg/mL (≈ 23 µM)
- MIC (C. difficile strains; strain NR-13438): 8 µg/mL (≈ 23 µM)
- MIC (C. difficile strains; strain NR-13553): 4 µg/mL (≈ 11.5 µM)
- MIC (C. difficile strains; strain NR-32882): 4 µg/mL (≈ 11.5 µM)
- MIC (C. difficile strains; strain NR-32883): 4 µg/mL (≈ 11.5 µM)
- MIC (C. difficile strains; strain NR-32884): 4 µg/mL (≈ 11.5 µM)
- MIC (C. difficile strains; strain NR-32885): 8 µg/mL (≈ 23 µM)
- MIC (C. difficile strains; strain NR-32886): 8 µg/mL (≈ 23 µM)
- MIC (C. difficile strains; strain NR-32887): 4 µg/mL (≈ 11.5 µM)
- MIC (C. difficile strains; strain NR-32888): 8 µg/mL (≈ 23 µM)
- MIC (C. difficile strains; strain NR-32889): 4 µg/mL (≈ 11.5 µM)
- MIC (C. difficile strains; strain NR-32890): 4 µg/mL (≈ 11.5 µM)
- MIC (C. difficile strains; strain NR-32891): 4 µg/mL (≈ 11.5 µM)
- MIC (C. difficile strains; strain NR-32892): 4 µg/mL (≈ 11.5 µM)
- MIC (C. difficile strains; strain NR-32895): 8 µg/mL (≈ 23 µM)
- MIC (C. difficile strains; strain NR-32896): 4 µg/mL (≈ 11.5 µM)
- MIC (C. difficile strains; strain NR-32897): 4 µg/mL (≈ 11.5 µM)
- MIC (C. difficile strains; strain NR-32900): 4 µg/mL (≈ 11.5 µM)
- MIC (C. difficile strains; strain NR-32903): 2 µg/mL (≈ 5.76 µM)
- MIC (C. difficile strains; strain NR-32904): 4 µg/mL (≈ 11.5 µM)
- MIC (C. difficile strains; strain NR-49277): 4 µg/mL (≈ 11.5 µM)
- MIC (C. difficile strains; strain NR-49278): 4 µg/mL (≈ 11.5 µM)
- MIC (C. difficile strains; strain NR-49279): 4 µg/mL (≈ 11.5 µM)
- MIC (C. difficile strains; strain NR-49280): 2 µg/mL (≈ 5.76 µM)
- MIC (C. difficile strains; strain NR-49281): 4 µg/mL (≈ 11.5 µM)
- MIC (C. difficile strains; strain NR-49282): 2 µg/mL (≈ 5.76 µM)
- MIC (C. difficile strains; strain NR-49283): 2 µg/mL (≈ 5.76 µM)
- MIC (C. difficile strains; strain NR-49284): 4 µg/mL (≈ 11.5 µM)
- MIC (C. difficile strains; strain NR-49285): 4 µg/mL (≈ 11.5 µM)
- MIC (C. difficile strains; strain NR-49286): 2 µg/mL (≈ 5.76 µM)
- MIC (C. difficile strains; strain NR-49287): 4 µg/mL (≈ 11.5 µM)
- MIC (C. difficile strains; strain NR-49288): 4 µg/mL (≈ 11.5 µM)
- MIC (C. difficile strains; strain NR-49289): 4 µg/mL (≈ 11.5 µM)
- MIC (C. difficile strains; strain NR-49290): 4 µg/mL (≈ 11.5 µM)
- MIC (C. difficile strains; strain NR-49291): 4 µg/mL (≈ 11.5 µM)
- MIC (C. difficile strains; strain NR-49293): 2 µg/mL (≈ 5.76 µM)
- MIC (C. difficile strains; strain NR-49295): 4 µg/mL (≈ 11.5 µM)
- MIC (C. difficile strains; strain NR-49296): 8 µg/mL (≈ 23 µM)
- MIC (C. difficile strains; strain NR-49297): 4 µg/mL (≈ 11.5 µM)
- MIC (C. difficile strains; strain NR-49298): 8 µg/mL (≈ 23 µM)
- MIC (C. difficile strains; strain NR-49299): 8 µg/mL (≈ 23 µM)
- MIC (C. difficile strains; strain NR-49300): 8 µg/mL (≈ 23 µM)
- MIC (C. difficile strains; strain NR-49301): 8 µg/mL (≈ 23 µM)
- MIC (C. difficile strains; strain NR-49303): 4 µg/mL (≈ 11.5 µM)
- MIC (C. difficile strains; strain NR-49304): 8 µg/mL (≈ 23 µM)
- MIC (C. difficile strains; strain NR-49306): 4 µg/mL (≈ 11.5 µM)
- MIC (C. difficile strains; strain NR-49307): 2 µg/mL (≈ 5.76 µM)
- MIC (C. difficile strains; strain NR-49308): 2 µg/mL (≈ 5.76 µM)
- MIC (C. difficile strains; strain NR-49309): 8 µg/mL (≈ 23 µM)
- MIC (C. difficile strains; strain NR-49311): 4 µg/mL (≈ 11.5 µM)
- MIC (C. difficile strains; strain NR-49312): 4 µg/mL (≈ 11.5 µM)
- MIC (C. difficile strains; strain NR-49313): 4 µg/mL (≈ 11.5 µM)
- MIC (C. difficile strains; strain NR-49314): 4 µg/mL (≈ 11.5 µM)
- MIC (C. difficile strains; strain NR-49315): 2 µg/mL (≈ 5.76 µM)
- MIC (C. difficile strains; strain NR-49316): 4 µg/mL (≈ 11.5 µM)
- MIC (C. difficile strains; strain NR-49317): 2 µg/mL (≈ 5.76 µM)
- MIC (C. difficile strains; strain NR-49319): 4 µg/mL (≈ 11.5 µM)
- MIC (C. difficile strains; strain NR-49320): 4 µg/mL (≈ 11.5 µM)
- MIC (C. difficile strains; strain NR-49321): 4 µg/mL (≈ 11.5 µM)
- MIC (C. difficile strains; strain NR-49323): 4 µg/mL (≈ 11.5 µM)
- MIC (C. difficile strains; strain NR-49324): 8 µg/mL (≈ 23 µM)
- MIC (C. difficile strains; strain NR-49325): 4 µg/mL (≈ 11.5 µM)
- MIC (C. difficile strains; strain NR-49326): 8 µg/mL (≈ 23 µM)
- MIC (C. difficile strains; strain NR-49327): 8 µg/mL (≈ 23 µM)
- MIC (C. difficile strains; strain NR-49328): 8 µg/mL (≈ 23 µM)
- MIC (C. difficile strains; strain NR-49329): 8 µg/mL (≈ 23 µM)
- MIC (C. difficile strains; strain RMA23691): 2 µg/mL (≈ 5.76 µM)
- MIC (C. difficile strains; strain RMA23828): 8 µg/mL (≈ 23 µM)
- MIC (C. difficile strains; strain RMA24531): 2 µg/mL (≈ 5.76 µM)
- MIC (C. difficile strains; strain RMA24923): 2 µg/mL (≈ 5.76 µM)
- MIC (C. difficile strains; strain RMA26675): 8 µg/mL (≈ 23 µM)
- MIC (C. difficile strains; strain RMA27081): 8 µg/mL (≈ 23 µM)
- MIC (C. difficile strains; strain RMA27173): 4 µg/mL (≈ 11.5 µM)
- MIC50 (C. difficile strains; C. difficile strains of Table 4, read-out: MIC50): 4 µg/mL (≈ 11.5 µM)
- MIC90 (C. difficile strains; C. difficile strains of Table 4, read-out: MIC90): 8 µg/mL (≈ 23 µM)
- MIC (C. difficile ATCC 43255; ATCC43255, 24 h, C. difficile ATCC 43255, 24 h, read-out: MIC (μg/mL) 24 h): 4 µg/mL (≈ 11.5 µM)
- MIC (C. difficile ATCC 43255; ATCC43255, 48 h, C. difficile ATCC 43255, 48-h incubation, read-out: MIC (μg/mL) 48 h): 8 µg/mL (≈ 23 µM)
- MIC (C. difficile ATCC 43255; ATCC43255, strain ATCC43255, read-out: MIC): 2 µg/mL (≈ 5.76 µM)
SMILES: c1cc(-c2noc(-c3ccc4c(c3)CCN4)n2)ccc1OC1CCCC1 [Compound 54, 3-(4-(Cyclopentyloxy)phenyl)-5-(indolin-5-yl)-1,2,4-oxadiazole]
